Experimental data from a melting point compilation (Tetko et al.; mined from patent text by program, amines drawn as free bases though some values may be those of a salt).

Row | melting point [°C] | Structure (SMILES)
1 | 191 to 193 | Cc1cc(C)c(Nc2nc(C)ncc2S(=O)(=O)c2ccc(F)cc2)c(C)c1
2 | 229 to 236 | COc1ccc(C(=O)c2cccc(C(=O)O)c2)c(O)c1
3 | 94 to 96 | CCOC(=O)c1c2ccc(Cl)cc2c(-c2ccccc2)n1C
4 | 190 to 192 | CC(=O)OCC1OC(n2cc(Cc3ccc(C4CC4)cc3)c3c(F)cccc32)C(OC(C)=O)C(OC(C)=O)C1OC(C)=O (configuration not stated)
5 | 93 to 94 | OCCCCCc1ccc(OCc2coc(/C=C/c3ccccc3)n2)cc1
6 | 192 | CC(C)(C)OC(=O)[C@H]1CC[C@@H](c2ccccc2)N1C(=O)CNC(=O)Nc1cccc(OCC(=O)O)c1 (racemic)
7 | 283 to 285 | O=C1CC(c2cccc(OCc3ccccc3)c2)=Nc2ccc(N3CCOCC3)cc21
8 | 330 to 332 | Cn1cc(-c2cc3cccnc3[nH]2)c2cc(C(N)=O)ccc21
9 | 54 to 55 | CCCCCC(=O)CCCC(=O)O
10 | 137 | CCC(Cl)C(=O)Nc1c(C(=O)CC(=O)Nc2ccccn2)cccc1C(F)(F)F (configuration not stated)
11 | 90 to 91 | CC(C)(C)OC(=O)N[C@@H](Cc1ccc2ccccc2c1)C(=O)OCc1ccccc1
12 | 103 to 106 | CC(C)(C)c1ccc(C2(N=C=O)CCC3(CC2)OCCO3)cc1
13 | 192 to 193 | CCN(CC)c1ccc2nc3c4ccccc4c(=Nc4ncc(Cl)cc4Cl)cc-3oc2c1
14 | 228 to 229 | FC(F)(F)c1cc(-n2cc(/C=C/c3nnn[nH]3)c(-c3cccc(Cl)c3)n2)cc(C(F)(F)F)c1
15 | 104 to 105 | COc1cccc(Cn2cc3c(-c4cccc(C(=O)NCCO)c4)cccc3n2)n1
16 | 124 to 126 | CN(C)S(=O)(=O)CC(CS(=O)(=O)c1ccc(Oc2ccc(OC(F)(F)F)cc2)cc1)N(O)C=O (configuration not stated)
17 | 107 to 112 | C=CCNc1cc2c(c3ccccc13)C(CCl)CN2C(=O)c1cc2cc(OC)c(OC)c(OC)c2[nH]1 (configuration not stated)
18 | 151 to 152 | CC(C)n1nc(-c2c(-c3ccccc3)nn3ccc(OCC(=O)N4CCN(C(=O)N(C)C)CC4)cc23)ccc1=O
19 | 156 to 157 | CC(C)=CCOc1ccc2c(C)cc(=O)oc2c1C(=O)C=Cc1cccnc1
20 | 113 to 116 | CS(=O)(=O)c1ccc(-c2[nH]nc(OC3CCCCC3=O)c2-c2ccc(F)cc2)cc1 (configuration not stated)
21 | 110 to 112 | COc1ccc2c(c1)NCc1ccccc1O2
22 | 99 to 100 | CC(=O)N1C(SCc2ccccc2N(C)C)=NC(=O)C1(C)C
23 | 297 to 299 | COc1ccc(CSc2cccc3c2C(=O)c2cccc(SCc4ccc(OC)cc4)c2C3=O)cc1
24 | 84 | CCC(C)N(C)C(=O)c1cc(-c2ccccc2)c2ccsc2c1 (configuration not stated)

Row | melting point [°C] | Structure (SMILES)
25 | 87.5 to 90 | OCCCc1ccc(-c2ccc(CCCO)c(C(F)(F)F)c2)cc1C(F)(F)F
26 | 170 to 172 | O=S(=O)(Nc1cccc(CC2Cc3ccc(OCc4nc5cc(F)c(F)cc5s4)cc3C2O)c1)C(F)(F)F (configuration not stated)
27 | 208 to 209 | CNC(=O)Nc1nc(C(C)c2ccc(-c3ccccc3)c(F)c2)cs1 (configuration not stated)
28 | 210 to 211 | COc1ncc(C(=O)Nc2c(F)cncc2F)cc1OC1CCCC1
29 | 116 to 118 | COc1ccc(CCCOCCn2cnc3c(N)nc4ccccc4c32)cc1
30 | 95 to 96 | COc1cc(CN2CCc3cc(OCc4ccccc4)c(OC)cc3C2)cc(OC)c1
31 | 166 to 167 | CCOc1cccc(-c2nc3n(n2)Cc2ccccc2-3)c1
32 | 87 to 88 | CC(=O)OCC1OC(n2cc(F)c(=O)[nH]c2=O)CC1OCc1ccccc1 (configuration not stated)
33 | 94 to 97 | O=C1NCCN1CCN1CCN([C@@H]2C[C@@H](c3ccc(F)cc3)c3ccccc32)CC1
34 | 102 to 103 | Clc1ccc2c(Br)ccnc2c1
35 | 86 to 89 | CN(C(=O)OC(C)(C)C)c1cc(OCc2ccccc2)ccc1N
36 | 111 to 112 | O=C(Nc1ccccc1)c1cccc(Oc2ccccc2)c1
37 | 123 to 126 | Nc1cc(C2COCCO2)ccn1 (configuration not stated)
38 | 305 to 308 | N=C(NO)c1ccc(-c2ccc(-c3nc4cc(C(=N)NO)ccc4[nH]3)cc2)nc1
39 | 192 | N#Cc1c(N2CCN(C(=O)c3cccs3)CC2)c2cccnc2n(C2CCCCC2)c1=O
40 | 238 to 239 | NNC(=O)c1cc2c(s1)-c1ccccc1OC2c1ccccc1 (configuration not stated)
41 | 143 to 145 | COC(=O)c1cnn(-c2ccc(Cl)cc2Cl)c1N
42 | 121 | Cc1cc(C)cc(C(=O)N2CCC(N3CCC(NC(=O)c4ccccc4N)CC3)CC2Cc2ccccc2)c1 (configuration not stated)
43 | 159 to 161 | Cc1cc(Cl)cc(C(=O)NC(C)C)c1NC(=O)c1cc(Br)nn1N1C=CC=C(Cl)C1
44 | 169 to 170 | Cc1nn(-c2ccc(Br)cc2)cc1C(=O)N(CC(=O)O)c1ccc(OCC(C)(C)C)c(C#N)c1
45 | 123 to 125 | CC(C)(C)C1=CC(O)(c2ccc(F)cc2)C=C(C(C)(C)C)C1=O
46 | 254 | O=C(O)C(=O)Nc1ccc2[nH]c(=O)oc2c1
47 | 149 to 150 | CCn1cncc1/C=C/c1cn(-c2ccccc2)nc1OCc1ccc(OCc2nc(-c3ccc(CC(=O)O)cc3)oc2C)c(OC)c1
48 | 240 to 246 | CN1CCN(c2cc3ncc(C#N)c(Nc4ccc(F)c(Cl)c4)c3cc2[N+](=O)[O-])CC1

Row | melting point [°C] | Structure (SMILES)
49 | 149 to 153 | Nc1sc2c(c1C(=O)c1ccco1)CCC2
50 | 189 to 191 | CC(=Cc1ccc2c(c1)Sc1cc(C=C(C)c3ccccc3)ccc1N2C)c1ccccc1
51 | 200 to 201 | C=CCNc1nc(NC(=O)NC(C)(C)C)c2cc([N+](=O)[O-])ccc2n1
52 | 120 | CCOC(=O)c1cc2cccc(N(C)S(=O)(=O)c3nccn3C)c2[nH]1
53 | 167 | FC(F)(F)c1cccc(N2CCN(CC[C@H]3CC[C@H](Nc4ncccn4)CC3)CC2)c1
54 | 148 to 150 | O=C(NCc1ncco1)c1ccnc(N2CCN(Cc3ccc(F)cc3)C2=O)c1
55 | 93 to 97 | CCCCOc1cc2cc(CO)c(CO)c(-c3ccnc(Cl)c3)c2cc1OC
56 | 125 to 126 | CC(=O)c1cc(S)c(Cl)cc1CC(=O)OCF
57 | 170 to 172 | Cc1cc(C)c(N)cc1N
58 | 53 to 54 | COc1cccc2c1CC(=O)CO2
59 | 78 to 80 | Cn1c(CC#N)ccc1C(=O)Cl
60 | 154 to 156 | COc1ccc(/C(=C\C=C\C(=O)O)C2CC2)cc1
61 | 127 | CCc1nc2cnc3cc(OCc4ccccc4)ccc3c2n1CC(C)C
62 | 31 | CCCCCC1=CCC(c2cc(F)cc(F)c2)C=C1 (configuration not stated)
63 | 226 to 228 | CC1Cc2cc(S(N)(=O)=O)cc(C(=O)NC3CCN(Cc4ccccc4)CC3)c2O1 (configuration not stated)
64 | 233 | Cc1cc(-c2ccc(Cl)cc2)nc(-n2cnc(-c3cccc(S(C)(=O)=O)c3)c2)n1
65 | 40 to 42 | CC#CCOc1ccc(S(=O)(=O)N2CCOCC2C(=O)O)cc1 (configuration not stated)
66 | 84 to 86 | CCN(CC)CCOC(=N)N1CCC(c2nsc3ccccc23)CC1
67 | 173 to 175 | CC(C)(C)OC(=O)Nc1ncc(C=O)s1
68 | 117 to 118 | CCNS(=O)(=O)c1cncc([N+](=O)[O-])c1
69 | 160 to 162 | O=C(O)Cc1ccccc1CC(=O)Nc1cccc(/C=C/c2nc(C3CCC3)cs2)c1
70 | 229 to 234 | O=C(O)c1ccc(N2CCCC2)c(NC(=O)C(CS)Cc2ccccc2)c1 (configuration not stated)
71 | 56 to 57 | CC(C)(C)c1ccc(OCCCCCCCCCCC(Cl)(Cl)C(=O)O)cc1
72 | 196 to 197 | CC(=O)NC(=Cc1cccs1)C1=NC(=Cc2ccc([N+](=O)[O-])cc2)C(=O)O1

Row | melting point [°C] | Structure (SMILES)
73 | 164 to 165 | CC(C)c1cc(C(C)C)c(CC(=O)NS(=O)(=O)Oc2c(C(C)C)cc(SC#N)cc2C(C)C)c(C(C)C)c1
74 | > 200 | N#Cc1ccc(-c2ccc(N3CCCNC3=O)cc2)cc1
75 | 84 to 85 | Cc1sc(-c2ccccc2)nc1COc1cc(CO)on1
76 | 251 to 254 | CCOc1ccc([N+](=O)[O-])cc1-c1nc2cccnc2c(=O)[nH]1
77 | 80 to 82 | O=C(O)CCc1ccc(O)c([N+](=O)[O-])c1
78 | 140 to 141 | Cn1c(CC(=O)O)ccc1C(=O)c1ccccc1Cl
79 | 170 | Nc1c(-c2ccc(Cl)cc2)nnn1-c1ccc(C(F)(F)F)cc1F
80 | 285 | O=c1c2c(nc3ccc(-c4nnn[nH]4)cn13)CSC2
81 | 55 to 56 | COC(=O)C=Cc1ccc(C)cc1
82 | 119 to 120 | COc1ccc(-c2cc(=O)n(CCc3ccc(Cl)cc3Cl)nc2-c2ccc(OC)cc2)cc1
83 | 131 to 132 | Fc1ccccc1-c1noc2c(Cl)c(OCCBr)ccc12
84 | 49 to 50 | CCCCCCCCCCCCCCOc1cccc(CO)c1
85 | 132 to 134 | O=c1c(OC(F)F)cn(-c2cccc(C(F)(F)F)c2)nc1-c1ccnn1-c1ccccc1
86 | 148 to 150 | CCCc1nc(S(=O)(=O)Nc2c(F)cccc2F)nn1-c1ccccc1
87 | 95 to 98 | CC(=S)NC[C@H]1CN(c2ccc(C3CCS(=O)(=O)N(C)C3)c(F)c2)C(=O)O1 (some centres not stated)
88 | 200 to 201 | O=C1c2c(-c3ccccc3)ccnc2OCCN1Cc1cc(C(F)(F)F)cc(C(F)(F)F)c1
89 | 151 | O=C1CC2(CCCC2)C(O)C(=O)N1CCCCN1CCN(c2nsc3ccccc23)CC1 (configuration not stated)
90 | 237 | CCCC1=C(C#N)C(c2ccccc2Br)c2c[nH]nc2N1 (configuration not stated)
91 | 146 to 147 | Cc1c(Cc2cccc(C(F)(F)F)c2)sc2c(-c3cc(F)cc(C(N)=O)c3)cccc12
92 | 120 to 122 | O=C1CC2CCc3ccc(Cl)cc3C2=NN1c1ccccc1 (configuration not stated)
93 | 70 to 72 | CCO[C@@H]1[C@@H](OC)[C@H](C)O[C@@H](OC(=O)N(C(C)=O)c2ccc(-c3ncn(-c4ccc(OC(F)(F)C(F)(F)F)cc4)n3)cc2)[C@@H]1OC
94 | 70 to 72 | CCOC(=O)c1cnn(-c2cc(Cl)cc(Cl)c2)c1SC

Row | Structure (SMILES) | melting point [°C]
95 | N#Cc1ccc(N2CCC(CCO)C2)c2ccsc12 (configuration not stated) | 109 to 111
96 | O=[N+]([O-])c1cc(F)c(N2CCCCC2)cc1Cl | 70
97 | CN1CC(CCCl)Oc2ncccc2C1=S (configuration not stated) | 134 to 136
